Assay results as given in US20060160869A1, “Ubiquitin ligase inhibitors” (Rigel Pharmaceuticals, Inc., priority 2005, published 2006).

Experiments:
[1] = tested on: p53 reporter system in p53 wild-type U2OS cell line; assay: p53-dependent transcription reporter assay, U20SRE; format: cell-based; conditions: p53 +ve cell type; maximal fold induction over DMSO control
Text: (§1) Stable lines of U2OS (osteosarcoma; Wild-type p53 positive), HCT116 (colorectal carcinoma; Wild-type p53 positive) and H1299 (lung non-small cell carcinoma; p53 null) carrying p53-dependent transcriptional regulatory element linked to a Luciferase reporter gene and H1299 carrying a 5′-regulatory region of GADD45 linked to Luciferase were used.
Day 1: Cells were re-plated into 96-well plates at suitable densities to make 50-60% confluence on Day 2. The plating densities are as follows: 7.5×10^3 cells/well (or 2.5×10^4 cells/cm^2) for U2OS; 1.5×10^4 cells/well (or 5.0×10^4 cells/cm^2) for HCT116; and 1.0×10^4 cells/well (or 3.3×10^4 cells/cm^2) for H1299.
(§2) Day 2: The compounds or control drugs were diluted in dimethyl sulfoxide (DMSO) and added to the wells to create 6-points/2-fold serial dilution (20, 10, 5, 2.5, 1.25, 0.625 and 0 μM) for each compound. The DMSO concentration was adjusted to 0.2% in all wells.
(§3) Day 3: Twenty to 24 hours after compound addition, cells were twice washed with PBS and lysed with Glo-lysis buffer (100 μl/well, Promega; Cat#E2661). Plates were subjected to gentle agitation on a table-top shaker for 5 minutes at room temperature. Fifty μl of lysate was transferred to an assay plate to test for luciferase activity and mixed with 2× assay buffer (Promega; Cat# E1483). The reaction mixture was left at room temperature for 2 minutes and then luminescence was measure by a luminometer (Victor™, 1420 Multilabel Counter, Wallac).
(§4) Data analysis was done on Excel software (Microsoft). Values in Table 4 represent maximal fold induction over negative control (DMSO only) and are the mean of at least duplicate experiments.
U20SRE is a p53 wild-type U2OS cell line containing p53 reporter system. If the compound acts against MDM2, p53 activity increases.

[2] = target: E3 (His-APC11/APC2, "APC") (Homo sapiens, UniProt Q9NYG5+Q9UJX6); assay: Plate-based E3 ligase assay (APC FLAG), auto-ubiquitination; format: biochemical; conditions: Table 2; read-out: APC IC50
Method: (§5) E3 (His-APC11/APC2—“APC”) auto-ubiquitination was measured as described in U.S. patent application Ser. No. 09/826,312 (Publication No. US-2002-0042083-A1), which is incorporated herein in its entirety. Details of the protocol are described below. Activity in the presence of the compound was determined relative to a parallel control in which only DMSO was added. Values of the IC50 were typically determined using 6 or 8 different concentrations of the compound, although as few as 2 concentrations may be used to approximate the IC50 value.
(§6) Nickel-coated 96-well plates (Pierce 15242) were blocked for 1 hour with 100 μl of blocking buffer at room temperature. The plates were washed 4 times with 225 μl of 1×PBS and 80 μl of the reaction buffer were added that contained 100 ng/well of Flag-ubiquitin. To this, 10 μl of the test compound diluted in DMSO were added. After the test compound was added, 10 μl of E1 (human), E2 (Ubch5c), and APC in Protein Buffer was added to obtain a final concentration of 5 ng/well of E1, 20 ng/well: of E2 and 100 ng/well of APC. The plate were shaken for 10 minutes and incubated at room temperature for 1 hour. After incubation, the plates were washed 4 times with 225 μl of 1×PBS and 100 μl/well of Antibody Mix were added to each well. The plates were incubate at room temperature for another hour after which they were washed 4 times with 225 μl of 1×PBS and 100 μl/well of Lumino substrate were added to each well. The luminescence was measured by using a BMG luminescence microplate reader.
APC Plate/gel is Anaphase Promoting Complex. This protein also belongs to E3 RING finger ligase group.

MDM2 = MDM2 (Homo sapiens, UniProt Q00987); assay: Plate-based E3 ligase assay, MDM2 autoubiquitination (MDM2-FLAG); format: biochemical; conditions: Table 2; read-out: MDM2 IC50
Method: as §5, §6
In similar manner, autoubiquitination of the E3 MDM2 was determined (MDM2-FLAG). Further instruction in such assays can be found in U.S. patent application Ser. No. 10/108,767 (Publication No. US-2003-0104474 A1), which is incorporated herein in its entirety.
hMDM2 Plate/Gel is Mouse double minute 2, human homolog. This protein belongs to the E3 RING finger ligase group.

[3] = tested on: p53 reporter system in p53 wild-type A549 cell line; assay: p53-dependent transcription reporter assay, A549RE; format: cell-based; conditions: p53 +ve cell type; maximal fold induction over DMSO control
Method: as §1, §2, §3, §4
A549RE is a p53 wild-type A549 cell line containing p53 reporter system. If the compound acts against MDM2, p53 activity increases.

Chain of MDM2 (Q00987 whole entry): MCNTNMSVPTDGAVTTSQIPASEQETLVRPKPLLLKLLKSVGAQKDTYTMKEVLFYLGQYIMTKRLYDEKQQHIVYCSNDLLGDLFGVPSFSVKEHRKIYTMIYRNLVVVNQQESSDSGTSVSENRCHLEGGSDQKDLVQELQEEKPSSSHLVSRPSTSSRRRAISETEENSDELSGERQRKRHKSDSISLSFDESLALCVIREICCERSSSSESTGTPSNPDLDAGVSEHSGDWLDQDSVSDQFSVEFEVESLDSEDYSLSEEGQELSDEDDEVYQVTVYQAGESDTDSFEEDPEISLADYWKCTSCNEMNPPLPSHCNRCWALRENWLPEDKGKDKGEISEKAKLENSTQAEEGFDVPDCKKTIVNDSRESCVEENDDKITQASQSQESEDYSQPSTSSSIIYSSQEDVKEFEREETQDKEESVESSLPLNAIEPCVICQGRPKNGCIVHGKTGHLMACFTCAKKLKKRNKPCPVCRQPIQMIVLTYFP
Chain of E3 (His-APC11/APC2, "APC") (Q9NYG5 whole entry): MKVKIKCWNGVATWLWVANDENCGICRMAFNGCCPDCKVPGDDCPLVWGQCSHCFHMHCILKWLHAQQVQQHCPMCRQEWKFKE
Chain of E3 (His-APC11/APC2, "APC") (Q9UJX6 whole entry): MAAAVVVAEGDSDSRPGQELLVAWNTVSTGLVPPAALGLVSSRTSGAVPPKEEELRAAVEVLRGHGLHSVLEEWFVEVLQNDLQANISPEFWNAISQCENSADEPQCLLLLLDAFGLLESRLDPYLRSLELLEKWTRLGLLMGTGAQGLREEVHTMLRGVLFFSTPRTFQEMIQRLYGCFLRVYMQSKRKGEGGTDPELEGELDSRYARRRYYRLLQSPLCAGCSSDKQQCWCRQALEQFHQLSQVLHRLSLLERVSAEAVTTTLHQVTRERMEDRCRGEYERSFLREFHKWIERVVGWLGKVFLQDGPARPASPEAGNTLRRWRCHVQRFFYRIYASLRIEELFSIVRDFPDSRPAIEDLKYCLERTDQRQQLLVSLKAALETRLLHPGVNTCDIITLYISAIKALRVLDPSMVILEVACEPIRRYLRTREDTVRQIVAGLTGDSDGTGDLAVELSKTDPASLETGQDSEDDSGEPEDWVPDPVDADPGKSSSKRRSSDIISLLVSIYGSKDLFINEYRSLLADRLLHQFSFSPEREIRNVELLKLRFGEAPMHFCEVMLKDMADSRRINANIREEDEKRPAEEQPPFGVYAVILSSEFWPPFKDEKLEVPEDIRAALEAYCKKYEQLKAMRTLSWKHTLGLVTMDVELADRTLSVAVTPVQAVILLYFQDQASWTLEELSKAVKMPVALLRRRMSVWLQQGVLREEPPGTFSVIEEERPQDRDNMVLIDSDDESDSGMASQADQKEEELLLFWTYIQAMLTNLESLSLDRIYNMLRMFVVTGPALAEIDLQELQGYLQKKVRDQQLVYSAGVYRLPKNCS

Fold Induction of p53 activity, U20SRE [1]: a (a means 2 or less)
IC50 [2]: ≥ 20 µM
IC50 (MDM2): ≥ 20 µM
Fold Induction of p53 activity, A549RE [3]: a (a means 2 or less)
Structure (SMILES): CC(C)N(CCN(Cc1ccc(C(=O)N2CCNCC2)cc1)c1nc(-c2cccc([N+](=O)[O-])c2)cs1)C(C)C [compound 233]
